Where a name gives a salt, the structure may show the parent alone. Read-outs that look alike come from different tables or passages of the source.
Biological target: T1, DPP-1 (Cathepsin C) (Homo sapiens, UniProt P53634)
T1 construct: made in house
Experiment: DPP-1 Inhibition Assay (in vitro), fluorogenic substrate GR-AMC
Type: biochemical
Conditions: 10 uM GR-AMC, pH 7.0, room temperature, average value where tested multiple times
Experimental: Test compounds were assessed for DPP-1 (Cathepsin C) inhibitory activity using a fluorogenic substrate, GR-AMC (Glycine-Arginine-amino-4-methylcoumarin, Bachem, I-1215). The amount of amino-methylcoumarin released is proportional to the DPP-1 activity, and the reaction is monitored kinetically with a Molecular Devices plate reader using black 96-well plates.
All compounds were tested under room temperature conditions. The assay buffer consisted of 50 mM HEPES, pH 7.0, 100 mM NaCl, 2 mM glutathione (GSH), and 0.002% TWEEN 20. GSH and TWEEN 20 were added to the buffer fresh daily. Just prior to use, an in-house preparation of recombinant human DPP-1 (240 µM stock, MW 49.6 kD) was diluted 600-fold in assay buffer containing fresh 2 mM dithiothreitol (DTT) to activate the enzyme, then diluted into assay buffer (without DTT) 133-fold for a DPP-1 working solution of 3 nM. Test compounds were diluted in DMSO for 20x their final assay concentrations.
Additions to a 96-well black Costar 3915 plates were as follows: 90 µL of 11 µM GR-AMC, 5 µL test compound (followed by mixing), and 5 µL 3 nM DPP-1 to start the reaction. Fluorescent reactions were monitored kinetically at 360 nm excitation, 440 nm emission on a Molecular Devices Spectramax XPS reader. The Softmax Pro software of the reader determined the initial velocity of the selected data (the first 3-5 minutes of the reaction), and the best linear regression fit of the initial kinetic data. Final assay conditions were 0.15 nM DPP-1, 10 uM GR-AMC, 50 mM HEPES, pH 7.0, 100 mM NaCl, 2 mM GSH, 0.002% TWEEN 20, 1 uM DTT, 5.0 % DMSO. Initial velocity rates were plotted vs. test compound concentration by use of a four-parameter logistics equation (nonlinear regression, sigmoidal dose-response (variable slope), with fixed Hill (1.0) using GraphPad Prism® software for determination of DPP-1 IC50. Within-run assay coefficient of variation (CV) was generally <10%; between-run CV <20%.
Representative compounds of the present invention were tested according to the procedure as described above, with results as listed in Table 5, below. Table 5: DPP-1 Inhibition

[1] = recombinant human DPP-1 0.15 nM, read-out: IC50
[2] = IC50, recombinant human DPP-1 0.15 nM

T1 sequence (P53634 25-463): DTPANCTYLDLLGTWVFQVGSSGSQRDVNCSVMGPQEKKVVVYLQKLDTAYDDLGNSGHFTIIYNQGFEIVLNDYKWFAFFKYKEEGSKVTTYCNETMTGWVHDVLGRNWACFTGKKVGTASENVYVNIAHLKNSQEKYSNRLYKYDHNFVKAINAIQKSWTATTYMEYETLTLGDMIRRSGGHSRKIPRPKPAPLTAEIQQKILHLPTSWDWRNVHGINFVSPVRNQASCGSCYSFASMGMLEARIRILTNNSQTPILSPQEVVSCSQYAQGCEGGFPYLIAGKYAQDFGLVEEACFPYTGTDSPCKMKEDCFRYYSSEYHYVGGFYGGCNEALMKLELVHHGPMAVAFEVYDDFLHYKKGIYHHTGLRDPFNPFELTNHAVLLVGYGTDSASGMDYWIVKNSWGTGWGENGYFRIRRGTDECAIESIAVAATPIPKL

| SMILES | IC50 [1] | IC50 [2] |
| --- | --- | --- |
| NC(C(=O)N1CCC(Cc2ccc(-c3ccccc3)cc2)(C(=O)NCC2CCCCC2)CC1)C(O)c1cccs1 (stereo not shown) [Compound 123] | 820 nM | – |
| NC(=O)c1ccc(CC2(C(=O)NC3CCC(O)CC3)CCN(C(=O)C(N)Cc3cccs3)CC2)cc1 (stereo not shown) [Compound 117] | 330 nM | – |
| N[C@@H](Cc1cccs1)C(=O)N1CCC(Cc2ccc(-c3nnn[nH]3)cc2)(C(=O)NC2CCCCC2)CC1 [Compound 126, (S)-4-(4-(1H-tetrazol-5-yl)benzyl)-1-(2-amino-3-(thiophen-2-yl)propanoyl)-N-cyclohexylpiperidine-4-carboxamide hydrochloride] | 170 nM | – |
| CC[C@H](N)C(=O)N1CCC(Cc2cccc(-c3ccccc3)c2)(C(=O)OCC2CCCCC2)CC1 [Compound 29] | – | 9500 nM |
| CC[C@H](N)C(=O)N1CCC(Cc2ccc(C(F)(F)F)cc2)(C(=O)OCC2CCCCC2)CC1 [Compound 18] | – | 5400 nM |
| N[C@@H](Cc1c[nH]cn1)C(=O)N1CCC(Cc2cccc(-c3ccccc3)c2)(C(=O)OCC2CCCCC2)CC1 [Compound 31] | – | 5800 nM |
| CN1CCC(CNC(=O)C2(c3ccccc3)CCN(C(=O)C(N)Cc3cccs3)CC2)CC1 (stereo not shown) [Compound 152] | 820 nM | – |
| N[C@@H](Cc1cccs1)C(=O)N1CCC(Cc2ccc(-c3ccccc3)cc2)(C(=O)NCC2CCOCC2)CC1 [Compound 6, (S)-1-(2-amino-3-(thiophen-2-yl)propanoyl)-4-(biphenyl-4-ylmethyl)-N-((tetrahydro-2H-pyran-4-yl)methyl)piperidine-4-carboxamide hydrochloride] | 74 nM | – |
| NC(Cc1cccs1)C(=O)N1CCC(Cc2ccc(-c3nnn[nH]3)cc2)(C(=O)NC2CCC(O)CC2)CC1 (stereo not shown) [Compound 128] | 690 nM | – |
| N#Cc1ccc(CC2(C(=O)OCC3CCCCC3)CCN(C(=O)[C@@H](N)Cc3cccs3)CC2)cc1 [Compound 15, (S)-cyclohexylmethyl 1-(2-amino-3-(thiophen-2-yl)propanoyl)-4-(4-cyanobenzyl)piperidine-4-carboxylate hydrochloride] | 83 nM | – |
| CC(=O)Nc1ccc(CC2(C(=O)NC3CCCCC3)CCN(C(=O)[C@@H](N)Cc3cccs3)CC2)cc1 [Compound 90, (S)-4-(4-acetamidobenzyl)-1-(2-amino-3-(thiophen-2-yl)propanoyl)-N-cyclohexylpiperidine-4-carboxamide hydrochloride] | 49 nM | – |
| N[C@@H](Cc1cccs1)C(=O)N1CCC(Cc2ccc(-c3ccccc3)cc2)(C(=O)N2CCC3CCCCC3C2)CC1 (stereo partly shown) [Compound 7] | – | 1300 nM |
| N#CC1(c2cc(C(F)(F)F)cc(C(F)(F)F)c2)CCN(C(=O)C(N)Cc2cccs2)CC1 (stereo not shown) [Compound 118] | – | 3400 nM |
| NC(=O)c1ccc(CC2(C(=O)NCC3CCCCC3)CCN(C(=O)[C@@H](N)Cc3cccs3)CC2)cc1 [Compound 116, (S)-1-(2-amino-3-(thiophen-2-yl)propanoyl)-4-(4-carbamoylbenzyl)-N-(cyclohexylmethyl)piperidine-4-carboxamide hydrochloride] | 50 nM | – |
| CN(C)C(=O)c1ccc(CC2(C(=O)NC3CCCCC3)CCN(C(=O)[C@@H](N)Cc3cccs3)CC2)cc1 [Compound 59, (S)-1-(2-amino-3-(thiophen-2-yl)propanoyl)-N-cyclohexyl-4-(4-(dimethylcarbamoyl)benzyl)piperidine-4-carboxamide hydrochloride] | 86 nM | – |
| N[C@@H](Cc1cccs1)C(=O)N1CCC(C(=O)NCC2CCCCC2)(c2cc(C(F)(F)F)cc(C(F)(F)F)c2)CC1 [Compound 133, 1-(2-(S)-Amino-3-thiophen-2-yl-propionyl)-4-(3,5-bis-trifluoromethyl-phenyl)-piperidine-4-carboxylic acid cyclohexylmethylamide hydrochloride] | 67 nM | – |
| Cc1ccc(C2(C(=O)NC3CCC(O)CC3)CCN(C(=O)C(N)Cc3cccs3)CC2)cc1 (stereo not shown) [Compound 131] | 140 nM | – |
| CSC[C@H](N)C(=O)N1CCC(Cc2ccc(-c3ccccc3)cc2)(C(=O)NC2CCCCC2)CC1 [Compound 38] | – | 750 nM |
| COc1cccc(-c2ccc(CC3(C(=O)NC4CCCCC4)CCN(C(=O)[C@@H](N)Cc4cccs4)CC3)cc2)c1 [Compound 47, (S)-1-(2-amino-3-(thiophen-2-yl)propanoyl)-N-cyclohexyl-4-((3'-methoxybiphenyl-4-yl)methyl)piperidine-4-carboxamide hydrochloride] | 34 nM | – |
| COC(=O)C1CCC(NC(=O)C2(c3ccccc3)CCN(C(=O)C(N)Cc3cccs3)CC2)CC1 (stereo not shown) [Compound 109] | 25 nM | – |
| N[C@@H](Cc1cccs1)C(=O)N1CCC(Cc2ccccc2C(=O)O)(C(=O)NC2CCCCC2)CC1 [Compound 80, 2-[1-(2-(S)-Amino-3-thiophen-2-yl-propionyl)-4-cyclohexylcarbamoyl-piperidin-4-ylmethyl]-benzoic acid hydrochloride] | 220 nM | – |
| CC[S+]([O-])CCC(N)C(=O)N1CCC(Cc2ccc(-c3ccccc3)cc2)(C(=O)NCC2CCCCC2)CC1 (stereo not shown) [Compound 107] | > 20000 nM | – |
| N[C@@H](Cc1cccs1)C(=O)N1CCC(Cc2ccc(NS(=O)(=O)c3ccccn3)cc2)(C(=O)NC2CCCCC2)CC1 [Compound 87, (S)-1-(2-amino-3-(thiophen-2-yl)propanoyl)-N-cyclohexyl-4-(4-(pyridine-2-sulfonamido)benzyl)piperidine-4-carboxamide hydrochloride] | 20 nM | – |
| CS(=O)(=O)CC[C@H](N)C(=O)N1CCC(Cc2ccc(I)cc2)(C(=O)NC2CCCCC2)CC1 [Compound 74] | > 20000 nM | – |
| N#Cc1ccc(CC2(C(=O)NC3CCC(O)CC3)CCN(C(=O)C(N)Cc3cccs3)CC2)cc1 (stereo not shown) [Compound 125] | 160 nM | – |
| COC(=O)C1CCC(NC(=O)C2(c3ccccc3)CCN(C(=O)C(N)Cc3cccs3)CC2)CC1 (stereo not shown) [Compound 113] | 70 nM | – |
| N[C@@H](Cc1cccs1)C(=O)N1CCC(C(=O)N[C@H]2CC[C@H](C(=O)O)CC2)(c2ccccc2)CC1 [Compound 111, 4-{[1-(2-(S)-Amino-3-thiophen-2-yl-propionyl)-4-phenyl-piperidine-4-carbonyl]-amino}-trans-cyclohexanecarboxylic acid] | 89 nM | – |
| C#CC[C@H](N)C(=O)N1CCC(Cc2ccc(-c3ccccc3)cc2)(C(=O)NC2CCCCC2)CC1 [Compound 35] | > 20000 nM | – |

From EP2544684B1, “4,4-DISUBSTITUTED PIPERIDINE DERIVATIVES USEFUL AS INHIBITORS OF DIPEPTIDYL PEPTIDASE-1 (DPP-1)” (Janssen Pharmaceutica NV, priority 2010, dated 2011)
